Legend:
[1] = tested on: alpha-1-acid glycoprotein (AAG); experiment: Binding site study with AAG, replacement of marker quinaldine red (fluorescence); set-up: species or system human
Description: Orosomucoid has seven binding sites in its molecule, but there is only one site where the drugs bind. A very good fluorescent marker for binding site study in the case of AAG is quinalidine red (QR).
We used a 500 nm excitation wavelength. In these conditions, the maximum emission spectra were located near 600 nm. We increased the molar ratio of the reactants from 1:1:0 to 1:1:10. The intensity of fluorescence decreases during the addition of successive portions of the analyzed compounds.
Binding site studies were conducted using fluorescence measurements. Spectra were recorded on Cary Eclipse 500 spectrophotometer (Agilent, Santa Clara, CA, USA) at room temperature with a 10 mm path length. HSA and AAG solutions were prepared in phosphate buffer, giving concentrations equal to 1 × 10^−6 M. The concentrations of dansylated-L-glycine (DanG), dansylated-L-phenylalanine (DanF), and quinaldine red (QR) were 1 × 10^−3 M. The densylated amino acids and QR solutions were prepared in ethanol. For the HSA-dansylated amino acids studies, the excitation wavelength was equal to 350 nm, while for the AAG-QR system, it was 500 nm, respectively. Then, 3 mL of protein was mixed with 3 µL of marker solution, giving a molar ratio of 1 to 1. Next, successive portions of the analyzed compounds were added to the mixtures prepared in this way, obtaining the appropriate protein-to-compound molar ratios, amounting to 1:0, 1:0.5, 1:1, 1:2, 1:3, 1:4, 1:5, and 1:10 for the HSA-densylated amino acids systems, and 1:0, 1:0.5, 1:1, 1:2, 1:3, 1:4, 1:6, 1:8, and 1:10 for the AAG-QR systems.

[2] = molecular target: human serum albumin (HSA) (Homo sapiens, UniProt P02768); experiment: Circular dichroism spectroscopy of HSA, secondary structure; set-up: purchased Sigma-Aldrich Chemie GmbH; conditions: for Change in % α-helix, (1:5) minus (1:0) / reduction in the percentage of α-helix: HSA
Chain of human serum albumin (HSA) (P02768 25-609): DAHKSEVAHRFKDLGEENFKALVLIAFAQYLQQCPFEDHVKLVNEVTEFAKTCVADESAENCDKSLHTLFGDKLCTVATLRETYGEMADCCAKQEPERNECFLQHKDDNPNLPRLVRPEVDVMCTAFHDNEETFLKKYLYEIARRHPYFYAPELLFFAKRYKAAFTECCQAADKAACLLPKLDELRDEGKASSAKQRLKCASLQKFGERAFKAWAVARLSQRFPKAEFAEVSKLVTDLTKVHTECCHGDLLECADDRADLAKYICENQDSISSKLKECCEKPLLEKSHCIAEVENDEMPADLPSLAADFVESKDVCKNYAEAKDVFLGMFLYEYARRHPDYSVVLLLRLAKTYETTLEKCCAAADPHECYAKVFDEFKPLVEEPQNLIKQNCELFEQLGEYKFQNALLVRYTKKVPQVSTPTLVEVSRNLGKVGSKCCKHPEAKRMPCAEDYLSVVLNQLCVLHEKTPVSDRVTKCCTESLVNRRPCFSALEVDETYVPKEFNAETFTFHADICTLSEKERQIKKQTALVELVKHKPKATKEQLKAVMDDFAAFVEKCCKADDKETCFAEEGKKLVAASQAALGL
Experimental: When the small molecules interact with plasma proteins, changes in circular dichroism spectra are observed. Specific secondary structures such as α-helix or β-sheet have a characteristic band on the spectrum. For the first structure, two negative peaks near 209 and 220 nm are observed, while for the β-sheet, the negative band around 215 nm is present.
Circular dichroism (CD) spectra were measured on the Jasco J-1500 magnetic circular dichroism spectrometer (JASCO International CO., Tokyo, Japan) at room temperature with a 10 mm path length. […] The spectra were measured in the range of 205–250 nm at a scan rate speed of 50 nm/min, with a response time of 1 s. […] They were respectively added into 3 mL of protein solution successive portions of the solutions of the analyzed compounds. The analysis of the obtained results was performed using the CD Multivariate Calibration Creation and CD Multivariate SSE programs (JASCO International CO., Tokyo, Japan). Protein concentrations were converted here for mean residue molar concentrations.

15-LOX = molecular target: T1, 15-LOX (Glycine max, UniProt P08170); experiment: 15-LOX inhibition, Cayman's Lipoxygenase Inhibitor Screening Assay Kit
T1 sequence (P08170 1-839): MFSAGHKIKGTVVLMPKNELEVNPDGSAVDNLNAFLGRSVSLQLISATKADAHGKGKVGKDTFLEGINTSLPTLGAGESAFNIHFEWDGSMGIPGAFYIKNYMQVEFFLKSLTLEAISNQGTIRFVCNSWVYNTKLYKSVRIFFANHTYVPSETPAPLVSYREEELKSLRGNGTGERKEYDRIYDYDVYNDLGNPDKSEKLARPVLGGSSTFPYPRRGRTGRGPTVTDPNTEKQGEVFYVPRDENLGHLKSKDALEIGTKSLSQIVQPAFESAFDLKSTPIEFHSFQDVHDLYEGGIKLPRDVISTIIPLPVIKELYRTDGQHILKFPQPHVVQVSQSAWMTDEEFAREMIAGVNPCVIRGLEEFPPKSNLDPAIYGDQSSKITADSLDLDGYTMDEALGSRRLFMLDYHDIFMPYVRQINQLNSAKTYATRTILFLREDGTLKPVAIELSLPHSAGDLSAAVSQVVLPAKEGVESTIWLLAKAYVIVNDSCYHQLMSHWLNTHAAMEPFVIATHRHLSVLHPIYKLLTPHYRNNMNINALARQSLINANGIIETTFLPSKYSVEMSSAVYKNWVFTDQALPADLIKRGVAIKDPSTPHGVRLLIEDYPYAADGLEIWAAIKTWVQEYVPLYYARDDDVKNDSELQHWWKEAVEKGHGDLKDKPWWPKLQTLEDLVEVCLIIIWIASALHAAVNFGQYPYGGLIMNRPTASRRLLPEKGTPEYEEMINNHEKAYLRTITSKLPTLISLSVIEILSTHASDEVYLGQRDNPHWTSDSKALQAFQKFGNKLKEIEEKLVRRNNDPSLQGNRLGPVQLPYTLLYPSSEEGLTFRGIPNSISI

[3] = AAG:marker:compound molar ratio 1:1:0.5
[4] = AAG:marker:compound molar ratio 1:1:1
[5] = AAG:marker:compound molar ratio 1:1:2
[6] = AAG:marker:compound molar ratio 1:1:3
[7] = AAG:marker:compound molar ratio 1:1:4
[8] = AAG:marker:compound molar ratio 1:1:6
[9] = AAG:marker:compound molar ratio 1:1:8
[10] = AAG:marker:compound molar ratio 1:1:10

Structure (SMILES)	percentage of the replacement of QR [1, 3] [%]	percentage of the replacement of QR [1, 4] [%]	percentage of the replacement of QR [1, 5] [%]	percentage of the replacement of QR [1, 6] [%]	percentage of the replacement of QR [1, 7] [%]	percentage of the replacement of QR [1, 8] [%]	percentage of the replacement of QR [1, 9] [%]	percentage of the replacement of QR [1, 10] [%]	Change in % α-helix, (1:5) minus (1:0) [2] [%]	% Other ([2]; HSA:compound molar ratio 1:0.5) [%]	% α-Helix ([2]; HSA:compound molar ratio 1:0.5) [%]	% β-Sheet ([2]; HSA:compound molar ratio 1:0.5) [%]	% β-Turn ([2]; HSA:compound molar ratio 1:0.5) [%]	% Other ([2]; HSA:compound molar ratio 1:1) [%]	% α-Helix ([2]; HSA:compound molar ratio 1:1) [%]	% β-Sheet ([2]; HSA:compound molar ratio 1:1) [%]	% β-Turn ([2]; HSA:compound molar ratio 1:1) [%]	% Other ([2]; HSA:compound molar ratio 1:2) [%]	% α-Helix ([2]; HSA:compound molar ratio 1:2) [%]	% β-Sheet ([2]; HSA:compound molar ratio 1:2) [%]	also measured
CCCCn1c(C)c2c(OCC(=O)N/N=C/c3ccccc3)nn(C)c(=O)c2c1C [Compound 5a, N-[(Z/E)-benzylideneamino]-2-(6-butyl-3,5,7-trimethyl-4-oxo-pyrrolo[3,4-d]pyridazin-1-yl)oxy-acetamide]	23.7	35.5	48.1	55.0	58.8	65.6	69.5	72.5	−2.0	20.7	67.3	2.8	9.2	20.9	66.9	2.8	9.3	21.5	66.3	2.7	% β-Turn ([2]; HSA:compound molar ratio 1:2): 9.4%; % Other ([2]; HSA:compound molar ratio 1:3): 21.6%; % α-Helix ([2]; HSA:compound molar ratio 1:3): 66.2%; % β-Sheet ([2]; HSA:compound molar ratio 1:3): 2.8%; % β-Turn ([2]; HSA:compound molar ratio 1:3): 9.5%; % Other ([2]; HSA:compound molar ratio 1:5): 20.3%; % α-Helix ([2]; HSA:compound molar ratio 1:5): 66.1%; % β-Sheet ([2]; HSA:compound molar ratio 1:5): 4.3%; % β-Turn ([2]; HSA:compound molar ratio 1:5): 9.3%; IC50 (15-LOX): 12.9 ± 0.06 µM
Cc1c2c(OCC(=O)N/N=C/c3ccccc3)nn(C)c(=O)c2c(C)n1-c1ccccc1 [Compound 5b, N-[(Z/E)-benzylideneamino]-2-(3,5,7-trimethyl-4-oxo-6-phenyl-pyrrolo[3,4-d]pyridazin-1-yl)oxy-acetamide]	17.2	29.1	40.3	47.0	52.2	55.2	56.7	58.2	−2.4	20.9	67.7	2.2	9.3	21.0	67.1	2.5	9.3	20.6	66.9	3.2	reduction in the percentage of α-helix [2]: 2.4%; % β-Turn ([2]; HSA:compound molar ratio 1:2): 9.3%; % Other ([2]; HSA:compound molar ratio 1:3): 20.5%; % α-Helix ([2]; HSA:compound molar ratio 1:3): 66.6%; % β-Sheet ([2]; HSA:compound molar ratio 1:3): 3.7%; % β-Turn ([2]; HSA:compound molar ratio 1:3): 9.3%; % Other ([2]; HSA:compound molar ratio 1:5): 20.2%; % α-Helix ([2]; HSA:compound molar ratio 1:5): 66.3%; % β-Sheet ([2]; HSA:compound molar ratio 1:5): 4.3%; % β-Turn ([2]; HSA:compound molar ratio 1:5): 9.2%; IC50 (15-LOX): 13.5 ± 0.02 µM
Cc1c2c(OCC(=O)N/N=C/c3ccccc3)nn(C)c(=O)c2c(C)n1-c1cccc(Cl)c1 [Compound 5c, N-[(Z/E)-benzylideneamino]-2-[6-(3-chlorophenyl)-3,5,7-trimethyl-4-oxo-pyrrolo[3,4-d]pyridazin-1-yl]oxyacetamide]	31.7	39.7	52.4	54.0	54.8	55.6	55.6	55.6	−1.6	19.6	68.4	2.9	9.1	20.3	68.0	2.5	9.2	19.8	67.8	3.2	reduction in the percentage of α-helix [2]: 1.6%; % β-Turn ([2]; HSA:compound molar ratio 1:2): 9.2%; % Other ([2]; HSA:compound molar ratio 1:3): 19.7%; % α-Helix ([2]; HSA:compound molar ratio 1:3): 67.8%; % β-Sheet ([2]; HSA:compound molar ratio 1:3): 3.3%; % β-Turn ([2]; HSA:compound molar ratio 1:3): 9.1%; % Other ([2]; HSA:compound molar ratio 1:5): 20.0%; % α-Helix ([2]; HSA:compound molar ratio 1:5): 67.3%; % β-Sheet ([2]; HSA:compound molar ratio 1:5): 3.5%; % β-Turn ([2]; HSA:compound molar ratio 1:5): 9.2%; IC50 (15-LOX): 12.7 ± 0.04 µM
